Test results taken from PMC10036753, “Orally disintegrating tablets containing famotidine nanoparticles provide high intestinal absorbability via the energy-dependent endocytosis pathway” (Frontiers in Bioengineering and Biotechnology, 2023).

Experiments:
[1] = oral, 40 mg daily; ref Lyon, 1986; Ramchandran et al., 2011; cited from earlier work
[2] = Particle size distribution of FAM dispersions and redispersed FAM tablets (NanoSight LM10); assay type: physicochemical
Protocol: The characterization of the FAM tablets and their redispersion were evaluated in accordance with our previous study ([Deguchi et al., 2021]; [Nagai et al., 2022]). Briefly, the shape and dimensions of the tablets were analyzed using ImageJ image analysis software 1.53. Hardness was measured using a Force Tester MCT-2150 (A&D Co., Ltd., Toshimaku, Japan), and friability was measured using an Oriental Reaction Motor (ORIENTAL MOTOR Co., Ltd., Tokyo, Japan). The disintegration of FAM tablets was evaluated using NT-2H (TOYAMA SANGO Co. Ltd., Osaka, Japan). The friability and disintegration of the FAM tablets were measured according to the Japanese Pharmacopoeia (18th edition). The FAM tablets were dispersed in 10 mL of purified water and the redispersion, solubility, viscosity, and intestinal penetration were measured. The particle distributions of the FAM dispersions and redispersed FAM tablets were measured by […] NanoSight LM10 (Quantum Design Japan, Tokyo, Japan), and the measurement time, wavelength, and viscosity were set to 60 s, 405 nm (blue) and 1.27 mPa s, respectively. Scanning electron microscopy (SEM) images were obtained using NeoScope™ JCM-7000 (JEOL Ltd., Tokyo, Japan). […] The viscosity of the redispersed FAM tablet was measured at 20°C–40°C using an SV-1A viscometer (A&D Company, Limited, Tokyo, Japan).

[3] = ref Khalifa and Abdul Rasool, 2017; cited from earlier work
H2 receptors = settings: ref Hassan et al., 1990; Patel and Patel, 2013; cited from earlier work
[4] = without bead-milling treatment
Protocol: First, 3 mL of each FAM dispersion were incubated in 5 mL test tubes in the dark at 20°C for 28 days. Images of the FAM dispersions were captured with a digital camera. The dispersions (50 μL) were withdrawn from 5 mm under the surface at the indicated time intervals (0, 7, 14, 21, and 28 days), and the FAM concentration was measured using the HPLC methods described above. In this study, the difference in FAM concentrations before and after the start of the experiment was estimated, and the changes in FAM levels on the surface were defined as the dispersibility of the FAM dispersions.

[5] = ref Jha et al., 2014; cited from earlier work
[6] = Pharmacokinetic study of FAM tablet in the rat; assay type: in vivo, Wistar rats; settings: Wistar, plasma, intravenous, single injection of FAM solution in DMSO (0.04 mg/kg) into the femoral vein
Protocol: FAM concentration was determined by HPLC using an LC-20AT HPLC system (Shimadzu Corp., Kyoto, Japan). A Luna® 5 µm C18 column (100 Å, 150 × 4.6 mm, GL Science Co., Inc., Tokyo, Japan) was used for the measurement, and the mobile phase [one-heptanesulfonic acid sodium salt/acetonitrile/methanol (25/6/1)] was followed at 0.25 mL/min. The sample was mixed with an internal standard (methyl p-hydroxybenzoate) in methanol and 10 µL of the mixture was injected into the HPLC system using an SIL-20AC HPLC auto injector. In this study, the FAM levels were measured at 254 nm (wavelength for detection).
Blood (200 μL) was collected from the right jugular vein at the indicated time intervals (0, 10, 20, 30, and 360 min). The collected blood was centrifuged at 800 × g for 15 min at 4°C, and the supernatant was used for measurement.

Compound: NC(N)=Nc1nc(CSCCC(N)=NS(N)(=O)=O)cs1 [FAM, Famotidine]
- Tolerability [1]: well tolerated
- Mean particle size of FAM ([2]; dispersion with bead-milling treatment): 108 ± 5.7 nm
- Mean particle size of FAM ([2]; dispersion without bead-milling treatment): 23.7 ± 2.1 µm
- BCS classification [3]: class III
- Inhibitory effect relative to cimetidine (H2 receptors): 20 fold
- Inhibitory effect relative to ranitidine (H2 receptors): 7.5 fold
- Time after preparation at which FAM was precipitated [4]: 24 h
- Intestinal penetration after oral administration [5]: < 50%
- Vd ([6]; read-out: Distribution volume (V d)): 0.064 L
- k el ([6]; read-out: Elimination rate constant (k e) (converted)): 2.17e-05 s⁻¹
